Experiments:
[1] = system: Aβ 40 and Aβ 42 production in swAPP-HEK293 cells; assay: Secreted Aβ 40 and Aβ 42 ELISA, swAPP-HEK293 cells; assay type: cell-based, human
Source text: Human APP harbouring the “Swedish” mutation (swAPP) is more prone to processing than wtAPP.

[2] = system: intracellular Aβ 40 and Aβ 42 in swAPP-HEK293 cells; assay: Intracellular (cell-associated) Aβ 40 and Aβ 42 ELISA, swAPP-HEK293 cells; assay type: cell-based, human; settings: swAPP-HEK293 cell lysates, normalized to cellular protein; qualitative
[3] = target: T1, recombinant human BACE protein (Homo sapiens, UniProt P56817); assay: BACE fluorogenic assay with recombinant protein; assay type: biochemical; settings: recombinant human BACE 1 μg/well, pH4.4; compound 38 at 2, 10 or 20 μM and higher
T1 construct: purchased R&D Systems
Source text: The human BACE1 cDNA was generated by RT-PCR from human brain mRNA samples (Biocat, Germany) and cloned into pcDNA3 expression vector. Subsequently, a HEK293 cell line stably expressing BACE1 was generated and used as a source of BACE1. An in vitro assay was developed based on previous studies (Ermolieff, J., Loy, J. A., Koelsch, G., and Tang, J. (2000) Biochemistry 39, 12450-12456) using a quenched fluorogenic substrate containing the Swedish mutation MCA-[…](DNP)-CONH2 (Substrate V, Calbiochem). Proteins were extracted in 20 mM MES/1% Triton X100 plus protease inhibitor cocktail by incubation on ice for 30 minutes. The assay was carried out in black 96 well plates (ATGC) in a volume of 200 μl reaction buffer (25 mM MES/25 mM Sodium Acetate/25 mM Tris, pH 4.4), containing 25 μl of the preparation plus 15 μM peptide Substrate V. Excitation was performed at 320 nm and the reaction kinetics were monitored by measuring the fluorescence emission at 420 nm on a Fluoroscan Ascent FL plate reader (Thermo LabSystems). Controls included purified recombinant human BACE501 protein (R&D Systems) diluted at 1 μg/well in 200 μl of 0.1 M Na Acetate buffer (pH 4.4), the BACE substrate analog inhibitor III (H-Glu-Val-Asn-Statine-Val-Ala-Glu-Phe-NH2, Calbiochem), or substrate alone, and background fluorescence was subtracted to recorded BACE activitiy. […]

[4] = system: γ-secretase; assay: γ-Secretase assay, compound added to solubilized γ-secretase preparations; assay type: biochemical
Description: We implemented a an assay allowing de novo Aβ generation in vitro, using cell membranes as the source of γ-secretase. Preparation of solubilized γ-secretase fractions was performed essentially as described previously (Li, Y. M., Lai, M. T., Xu, M., Huang, Q., DiMuzio-Mower, J., Sardana, M. K., Shi, X. P., Yin, K. C., Shafer, J. A., and Gardell, S. J. (2000) Proc. Natl. Acad. Sci. U.S.A. 97, 6138-6143) with the above modifications. All incubations were performed in the presence of Complete Protease Inhibitor Cocktail. Confluent plates swAPP-HEK293 cells were lysed in 1 ml of ice-cold CelLytic-M (Sigma) and incubated 15 minutes at 4° C. on a shaker. Cell debris and nuclei were removed by centrifugation at 1000×g for 15 min at 4° C. For membrane isolation, the supernatant solutions were centrifuged at 20,000×g for 1 hour at 4° C. After centrifugation, the ensuing pellets were resuspended in 100 μl activity buffer (150 mM Na Citrate, pH 6.4)/cells plate and were defined as solubilized γ-secretase, as previously shown by Pinnix et al. (2001). Solubilized γ-secretase activity was induced at 37° C. for 2 h with or without the indicated treatments and Aβ 40 generated de novo was quantified by ELISA. Control experiments used the internally quenched fluorogenic γ-secretase substrate NMA-[…](DNP)-DRDRDR-NH2 (λex=355 nm; λem=440 nm) from Calbiochem, which contains the C-terminal β-APP amino acid sequence that is cleaved by γ-secretase and the γ-secretase inhibitor N—[N-(3,5-Difluorophenacetyl-L-alanyl)]-S-phenylglycine t-Butyl Ester (DAPT, Calbiochem).
To test this hypothesis, we used an established γ-secretase assay allowing de novo Aβ generation in vitro, using cell membranes as the source of γ-secretase. Solubilized γ-secretase fractions are activated in a γ-secretase buffer (see experimental procedures) and activity is monitored following either the cleavage of an internally quenched fluorogenic γ-secretase substrate, or endogenous C99 itself. The well characterized cell permeable γ-secretase inhibitor DAPT (Lanzn, T. A., Himesn, C. S., Pallanten, G., Adamsn, L., Yamazakin, S., Amoren, B., and Merchantn, K. M. (2003) J. Pharmacol. Exp. Ther. 305, 864-871) is included as control. C99 cleavage by γ-secretase was measured by de novo Aβ 40 generation. De novo Aβ 40 production increased with time and was optimal at 37° C. (FIG. 4 B). […] When temperature decreased, Aβ 40 generation decreased in parallel and was abolished at 4° C., in accordance with an enzymatic processing. […] (data not shown).

[5] = system: brain Aβ 40 and Aβ 42
[6] = target: Cdc42 (Homo sapiens, UniProt P60953); settings: Gao et al. 2004; Picard et al., submitted; cited from earlier work
[7] = system: Rac1-dependent cytoskeleton rearrangements; settings: Picard et al., submitted; cited from earlier work
[8] = target: Recombinant Rac3 (Homo sapiens, UniProt P60763); assay: biochemical

Sequence of Cdc42 (P60953 whole entry, species assumed): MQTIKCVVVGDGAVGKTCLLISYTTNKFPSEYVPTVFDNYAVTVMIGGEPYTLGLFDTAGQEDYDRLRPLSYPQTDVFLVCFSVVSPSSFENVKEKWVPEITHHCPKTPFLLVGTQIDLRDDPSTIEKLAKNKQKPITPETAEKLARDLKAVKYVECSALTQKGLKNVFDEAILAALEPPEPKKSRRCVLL
T1 sequence (P56817 46-501): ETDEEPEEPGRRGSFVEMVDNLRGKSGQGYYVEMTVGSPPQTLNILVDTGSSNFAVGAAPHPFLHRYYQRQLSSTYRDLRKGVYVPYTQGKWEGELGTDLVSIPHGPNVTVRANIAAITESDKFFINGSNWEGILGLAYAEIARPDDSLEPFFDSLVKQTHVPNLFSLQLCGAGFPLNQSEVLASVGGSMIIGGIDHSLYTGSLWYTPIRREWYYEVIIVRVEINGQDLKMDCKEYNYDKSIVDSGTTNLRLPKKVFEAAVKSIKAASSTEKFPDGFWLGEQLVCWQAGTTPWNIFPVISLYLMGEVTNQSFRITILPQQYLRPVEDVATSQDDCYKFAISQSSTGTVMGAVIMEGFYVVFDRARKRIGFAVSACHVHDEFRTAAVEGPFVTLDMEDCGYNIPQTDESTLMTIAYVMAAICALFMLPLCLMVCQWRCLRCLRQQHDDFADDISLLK

Cl.Cl.O=c1cc(CN2CCOCC2)occ1OCCCCCSc1ccnc2cc(C(F)(F)F)ccc12 [compound 38, 5-(5-(7-(Trifluoromethyl)quinolin-4-ylthio)pentyloxy)-2-(morpholinomethyl)-4H-pyran-4-one dihydrochloride]
Aβ 40 and Aβ 42 levels ([1]; swAPP-HEK293, 50 μM or above): below the detection limit | secreted Aβ 40 and Aβ 42 ([1]; swAPP-HEK293, 18 h, 20, 10 or 2 μM, qualitative): dose-dependently inhibits both Aβ species | Aβ 40 and Aβ 42 intracellular levels [2]: dose-dependent decrease | BACE activity (cleavage of fluorogenic Substrate V) [3]: did not affect fluorescence | de novo Aβ 40 generation from membrane preparations ([4]; added to solubilized γ-secretase from untreated cells, 50 μM): did not change | de novo Aβ 40 generation from membrane preparations ([4]; concentrations as high as 4 mM): lack of effect | cleavage of fluorogenic γ-secretase substrate ([4]; direct addition): not a direct competitive inhibitor of γ-secretase | decrease in Aβ 42 levels ([5]; guinea pig, 40 mg/kg per day i.p., 15 days, just below significance): 23.6% | lowering of brain Aβ 40 ([5]; guinea pig, 40 mg/kg per day i.p., 15 days, p<0.05 Wilcoxon): 37% | reduction in Aβ levels in vivo ([5]; summary statement): ~30% | C83 and C99 levels ([5]; treated guinea pigs): No significant changes | full-length APP levels ([5]; treated guinea pigs): no change | activity on / interaction with Cdc42 [6]: selective over cdc42 and RhoA | Rac1-dependent cytoskeleton rearrangements [7]: prevents | Kd [8]: 270 nM

Source: patent publication US20090093471A1, “Methods of Treating Nervous Disorders” (priority 2005, published 2009)
